Results as given in patent US20090215029A1, “METHODS OF ISOLATING AND PURIFYING NUCLEIC ACID-BINDING BIOMOLECULES AND COMPOSITIONS INCLUDING SAME” (CytoCure, Inc., priority 2007, published 2009).
Where two headings read alike, the source gives them in different places.

Experiments:
[1] = tested on: nucleic acids to a bound factor; assay: Cross-linking / fixative activity: effectiveness in covalently linking nucleic acids to a bound factor; format: biochemical
Description: Several cross-linking fixatives incorporating a nucleic acid binding group covalently coupled with a primary amine-binding group were synthesized. These agents were assayed to determine effectiveness covalently linking nucleic acids to a bound factor.

[2] = tested on: whole cells; assay: Combination crosslinking, first and second agents added to whole cells; format: cell-based; details: combination with second agent EGS (amine binding); both added more or less simultaneously to whole cells, not less than 30 minutes, room temperature to 37 Celsius
Description: Note: For Combination crosslinking experiments, both the First and Second agents are added more or less simultaneously to whole cells (ethidium bromide requires prior membrane permeabilization) for not less than 30 minutes at room temperature to 37 Celsius.

**Q.** For `C1OC1C1CO1` (stereo not drawn) [1,3 butadiene diepoxide], which “Activity as fixative agent” value [1] is on record?
**A.** Its value is “some activity”.

**Q.** How did the Activity [2] turn out when `N.N.[Cl][Pt][Cl]` [Cisplatin] was run?
**A.** The Activity was “Strong”.

**Q.** `CC[n+]1c(-c2ccccc2)c2cc(N=[N+]=[N-])ccc2c2ccc(N)cc21.[Br-]` [Ethidium bromide monoazide, 3-Amino-8-azido-5-ethyl-6-phenylphenanthridinium bromide] was tested. Which Activity [2] did it give?
**A.** The Activity was “Strong”.

**Q.** How did the Activity ([1]; synthesized compounds: DNA-binding moiety coupled with NHS ester protein-binding moiety) turn out when `CC[n+]1c(-c2ccccc2)c2cc(N=[N+]=[N-])ccc2c2ccc(NC(=O)CCC(=O)OCCOC(=O)CCC(=O)ON3C(=O)CCC3=O)cc21.[Br-]` [B, 8-azido-3-(4-(2-(4-(2,5-dioxopyrrolidin-1-yloxy)-4-oxobutanoyloxy)ethoxy)-4-oxobutanamido)-5-ethyl-6-phenylphenanthridinium bromide] was run?
**A.** Its Activity is “Strong”.

**Q.** How did the Activity [1] turn out when “2,5-dioxopyrrolidin-1-yl-2-(4-(3-methylthioureido)-4-oxobutanoyloxy)ethyl succinate chloro(ethylenediamine)platinum(II) complex” was run?
**A.** The Activity was “Some”.

**Q.** `O=C(CCC(=O)OCCOC(=O)CCC(=O)ON1C(=O)CCC1=O)NC(Cc1ccc(N(CCCl)CCCl)cc1)C(=O)O` (stereo not drawn) [A, 3-(4-(bis(2-chloroethyl)amino)phenyl)-2-(4-(2-(4-(2,5-dioxopyrrolidin-1-yloxy)-4-oxobutanoyloxy)ethoxy)-4-oxobutanamido)propanoic acid] was tested. Which Activity [1] did it give?
**A.** Its Activity is “Strong”.

**Q.** How did the Activity [2] turn out when `Cc1oc2c(C)c3oc(=O)cc(C)c3cc2c1CN` [4-aminomethyl trioxsalen] was run?
**A.** Its Activity is “Weak”.

**Q.** `O=CCCCC=O` [glutaraldehyde] was tested. Which “Activity as fixative agent” value ([1]; additional fixative agents) did it give?
**A.** Its value is “some activity”.

**Q.** With `O=CC=O` [glyoxal] as the compound, how does the “Activity as fixative agent” value [1] read?
**A.** The value was “some activity”.
